Results taken from patent publication US11795177B2, “Substituted quinoline analogs as aldehyde dehydrogenase 1A1 (ALDH1A1) inhibitors” (THE UNITED STATES OF AMERICA, AS REPRESENTED BY THE …, priority 2017, dated 2023).

Key:
ALDH1A1 enzyme = target: T1, ALDH1A1 enzyme (Homo sapiens, UniProt P00352); assay: ALDH1A1 enzymatic assay (in vitro); type: biochemical; conditions: ALDH1A1 enzyme 20 nM, NAD+ 1 mM, propionaldehyde 80 μM; read-out: ALDH1A1 IC50
T1 sequence (P00352 1-501): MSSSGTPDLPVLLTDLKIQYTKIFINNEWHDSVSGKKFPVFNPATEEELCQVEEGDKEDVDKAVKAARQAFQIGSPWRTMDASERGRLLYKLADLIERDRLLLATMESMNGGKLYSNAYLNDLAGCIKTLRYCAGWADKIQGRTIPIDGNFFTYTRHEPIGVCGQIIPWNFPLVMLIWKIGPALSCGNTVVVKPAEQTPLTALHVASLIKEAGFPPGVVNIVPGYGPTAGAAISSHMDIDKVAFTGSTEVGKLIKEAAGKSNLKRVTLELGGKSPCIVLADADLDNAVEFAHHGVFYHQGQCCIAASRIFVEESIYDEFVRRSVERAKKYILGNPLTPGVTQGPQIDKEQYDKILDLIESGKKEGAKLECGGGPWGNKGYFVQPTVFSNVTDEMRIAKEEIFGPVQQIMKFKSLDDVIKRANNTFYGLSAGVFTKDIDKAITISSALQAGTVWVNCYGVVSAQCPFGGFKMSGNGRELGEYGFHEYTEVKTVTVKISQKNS
Outline: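 ALDH1A1 (20 nM final) in 100 mM HEPES pH 7.5, 0.01% Tween 20 was preincubated 15 min at RT with compound (968 pM–57.2 μM final), then started with 1 mM NAD+ and 80 μM propionaldehyde. NADH fluorescence (ex 340/em 450 nm) followed kinetically for 10 min; change normalized to no-inhibitor and no-enzyme controls for percent inhibition and curve fitting.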

MIA PaCa-2 cells = assay: MIA PaCa2 cell-based assay (1,536-well high-content imaging ALDEFLUOR assay); design: species or system human; conditions: Homo sapiens, 0.5 h, ALDEFLUOR BAAA substrate 500 nM, 30 minutes
Outline: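 MIA PaCa-2 cells (1,000/well), plated overnight, given BAAA substrate (500 nM) plus Hoechst 33342 (0.5 nM), then compound (16-point, 1.4 nM–47.8 μM final; 0.5% DMSO). After 30 min at 37° C, ALDH activity imaged by high-content microscopy as BAA-retaining (FITC) cells versus Hoechst-stained nuclei.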

| Compound | IC50 (ALDH1A1 enzyme) [µM] | IC50 (MIA PaCa-2 cells) [µM] |
| --- | --- | --- |
| CS(=O)(=O)N1CCN(C(=O)c2cnc3ccc(F)cc3c2N2CCC(C#N)(c3cccs3)CC2)CC1 [Cpd. 356, 1-(6-fluoro-3-(4-(methylsulfonyl)piperazine-1-carbonyl)quinolin-4-yl)-4-(thiophen-2-yl)piperidine-4-carbonitrile] | < 0.5 | < 0.5 |
| N#CC1(c2ccc(-c3c(C(=O)N[C@H]4C[C@H](O)C4)cnc4ccc(F)cc34)cc2)CC1 [Cpd. 336, 4-(4-(1-cyanocyclopropyl)phenyl)-6-fluoro-N-((1R,3R)-3-hydroxycyclobutyl)quinoline-3-carboxamide] | < 0.5 | 0.5 to 1 |
| CCC(=O)N1CCN(C(=O)c2cnc3cc(OC)c(OC)cc3c2N2CCC(C)(C#N)CC2)CC1 [Example 110, 1-(6,7-dimethoxy-3-(4-propionylpiperazine-1-carbonyl)quinolin-4-yl)-4-methylpiperidine-4-carbonitrile] | < 0.5 | 1 to 10 |
| CN(C)S(=O)(=O)N1CCN(C(=O)c2cnc3ccc(Cl)cc3c2N2CCC(C#N)(c3ccccc3)CC2)CC1 [Cpd. 314, 4-(6-chloro-4-(4-cyano-4-phenylpiperidin-1-yl)quinoline-3-carbonyl)-N,N-dimethylpiperazine-1-sulfonamide] | < 0.5 | < 0.5 |

Next, values leading:

| IC50 (ALDH1A1 enzyme) [µM] | IC50 (MIA PaCa-2 cells) [µM] | Compound |
| --- | --- | --- |
| 1 to 10 | > 10 | C[C@@H]1CN(C(=O)C2CC2)C[C@H](C)N1C(=O)c1cnc2ccc(F)cc2c1N1CCC(C)(C#N)CC1 [Example 240, 1-(3-((2S*,6R*)-4-(cyclopropanecarbonyl)-2,6-dimethylpiperazine-1-carbonyl)-6-fluoroquinolin-4-yl)-4-methylpiperidine-4-carbonitrile] |
| 1 to 10 | > 10 | C=CC(=O)N1CCN(c2c(C(=O)N3CCN(S(C)(=O)=O)CC3)cnc3ccc(F)cc23)CC1 [Example 220, 1-(4-(6-fluoro-3-(4-(methylsulfonyl)piperazine-1-carbonyl)quinolin-4-yl)piperazin-1-yl)prop-2-en-1-one] |
| 1 to 10 | > 10 | C[C@@H]1CN(C(=O)c2cnc3ccc(F)cc3c2N2CCC(C)(C#N)CC2)C[C@H](C)N1C(=O)C1CC1 [Example 228, 1-(3-((3R*,5S*)-4-(cyclopropanecarbonyl)-3,5-dimethylpiperazine-1-carbonyl)-6-fluoroquinolin-4-yl)-4-methylpiperidine-4-carbonitrile] |
